# Publication PMC8217813, “Bridging Computational Vaccinology and Vaccine Development Through Systematic Identification, Characterization, and Downselection of Conserved and Variable Circumsporozoite Protein CD4 T Cell Epitopes From Diverse Plasmodium falciparum Strains” (Frontiers in Immunology, 2021)
# Peptide text beside a SMILES is read from it.
# What was measured:
# [1] = system: CD4 T cells co-cultured with autologous DCs from PBMCs; type: cell-based, human; settings: positive = Stimulation Index ≥1.5-fold above baseline, 5 µg/mL peptide
# HLA-DRB1*0401 = target: T1, HLA-DRB1*0401 (Homo sapiens, UniProt P01903+P01911, A100K/A169T/F76Y/I96L/K127E/L162R/M171V/N62H/P40V/Q125Y/R42H/S133A/S149N/S66Y/V115G/V209L/W38E); assay: In vitro class II HLA binding competition assay; settings: competition with fluorescent-labeled reference peptide, class II HLA monomers, 24-hours, test peptide 100,000 nM to 100 nM, time-resolved fluorescence; read-out: IC50, DRB1*0401
# T1 construct: purchased
# Method: (§1) EpiVax conducted in vitro quantification of peptide-HLA binding affinity utilizing a competition assay format per the methodology described in ([35]). Briefly, a fluorescent-labeled, high-binding reference peptide and titrating concentrations of test peptide were incubated in a 96-well plate format with limiting concentrations of class II HLA monomers in aqueous buffer for 24-hours. Post incubation, the mixtures were moved to a 96-well plate coated with anti-HLA-DR antibody to capture HLA-peptide complexes. Time-resolved fluorescence measurement of the bound labeled reference peptide complex present in each mixture were detected with a europium-linked probe via fluorescent spectrophotometry using a SpectraMax M5 system. HLA binding affinity of each test peptide was expressed as the percent inhibition of reference peptide binding. Percent inhibition values (across the test peptide titration range) were used to calculate the half maximal inhibitory concentration (IC50) of each test peptide. For these studies, test peptides were assessed using a range of final concentrations from 100,000 nM to 100 nM and all peptides were reconstituted in dimethyl sulfoxide (DMSO).
# HLA-DRB1*1101 = target: T2, HLA-DRB1*1101 (Homo sapiens, UniProt P01903+P01911, A100R/A169T/A87E/I96F/K41T/L162R/M171V/P40S/Q125H/Q178H/Q39Y/Q99D/R42S/S66Y/T262R/V115G/W38E); assay: In vitro class II HLA binding competition assay; settings: competition with fluorescent-labeled reference peptide, class II HLA monomers, 24-hours, test peptide 100,000 nM to 100 nM, time-resolved fluorescence
# T2 construct: purchased
# Method: as §1
# HLA-DRB1*1301 = HLA-DRB1*1301 (Homo sapiens, UniProt P01903+P01911, A100E/A169T/K41T/L162R/M171V/P40S/Q125H/Q178H/Q39Y/Q99D/R42S/S66N/T262R/W38E/Y61H); assay: In vitro class II HLA binding competition assay; settings: competition with fluorescent-labeled reference peptide, class II HLA monomers, 24-hours, test peptide 100,000 nM to 100 nM, time-resolved fluorescence
# Method: as §1
# HLA-DRB1*0801 = HLA-DRB1*0801 (Homo sapiens, UniProt P01903+P01911, A100R/A103L/A169T/D86S/F76Y/H45Y/I96F/K41T/L162R/M171V/P40S/Q125H/Q178H/Q39Y/Q99D/R218S/R42G/S66Y/V115G/W38E); assay: In vitro class II HLA binding competition assay; settings: competition with fluorescent-labeled reference peptide, class II HLA monomers, 24-hours, test peptide 100,000 nM to 100 nM, time-resolved fluorescence
# Method: as §1
smiles,measurement,setting,value
CC(=O)N[C@@H](CCCCN)C(=O)N[C@@H](CCC(N)=O)C(=O)N[C@@H](CCC(=O)O)C(=O)N[C@@H](CC(N)=O)C(=O)N[C@@H](Cc1c[nH]c2ccccc12)C(=O)N[C@@H](Cc1ccc(O)cc1)C(=O)N[C@@H](CO)C(=O)N[C@@H](CC(C)C)C(=O)N[C@@H](CCCCN)C(=O)N[C@@H](CCCCN)C(=O)N[C@@H](CC(N)=O)C(=O)N[C@@H](CO)C(=O)N[C@@H](CCCNC(=N)N)C(=O)N[C@@H](CO)C(=O)N[C@@H](CC(C)C)C(=O)NCC(=O)N[C@@H](CCC(=O)O)C(=O)N[C@@H](CC(N)=O)C(=O)N[C@@H](CC(=O)O)C(N)=O [Cluster C2] (Ac-KQENWYSLKKNSRSLGEND-NH2),"Percentage of donors demonstrating IFN-γ responses, DR1","[1]; DR1 donors N=5, ICCS after 14-day co-culture",20%
same,"Percentage of donors demonstrating IL-2 responses, DR1","[1]; DR1 donors N=5, ICCS",0%
same,"Percentage of donors demonstrating IL-4 responses, DR1","[1]; DR1 donors N=5, ICCS",40%
same,"Percentage of donors demonstrating IL-10 responses, DR1","[1]; DR1 donors N=5, ICCS",20%
same,"Percentage of donors demonstrating TNF-α responses, DR1","[1]; DR1 donors N=5, ICCS",0%
same,"Percentage of donors demonstrating IFN-γ responses, DR3","[1]; DR3 donors N=6, ICCS after 14-day co-culture",33%
same,"Percentage of donors demonstrating IL-2 responses, DR3","[1]; DR3 donors N=6, ICCS",0%
same,"Percentage of donors demonstrating IL-4 responses, DR3","[1]; DR3 donors N=6, ICCS",0%
same,"Percentage of donors demonstrating IL-10 responses, DR3","[1]; DR3 donors N=6, ICCS",50%
same,"Percentage of donors demonstrating TNF-α responses, DR3","[1]; DR3 donors N=6, ICCS",0%
same,"Percentage of donors demonstrating IFN-γ responses, DR4","[1]; DR4 donors N=10, ICCS after 14-day co-culture",0%
same,"Percentage of donors demonstrating IL-2 responses, DR4","[1]; DR4 donors N=10, ICCS",0%
same,"Percentage of donors demonstrating IL-4 responses, DR4","[1]; DR4 donors N=10, ICCS",10%
same,"Percentage of donors demonstrating IL-10 responses, DR4","[1]; DR4 donors N=10, ICCS",10%
same,"Percentage of donors demonstrating TNF-α responses, DR4","[1]; DR4 donors N=10, ICCS",0%
same,"Percentage of donors demonstrating IFN-γ responses, DR7","[1]; DR7 donors N=4, ICCS after 14-day co-culture",0%
same,"Percentage of donors demonstrating IL-2 responses, DR7","[1]; DR7 donors N=4, ICCS",0%
same,"Percentage of donors demonstrating IL-4 responses, DR7","[1]; DR7 donors N=4, ICCS",25%
same,"Percentage of donors demonstrating IL-10 responses, DR7","[1]; DR7 donors N=4, ICCS",50%
same,"Percentage of donors demonstrating TNF-α responses, DR7","[1]; DR7 donors N=4, ICCS",0%
same,"Percentage of donors demonstrating IFN-γ responses, DR8","[1]; DR8 donors N=4, ICCS after 14-day co-culture",0%
same,"Percentage of donors demonstrating IL-2 responses, DR8","[1]; DR8 donors N=4, ICCS",0%
same,"Percentage of donors demonstrating IL-4 responses, DR8","[1]; DR8 donors N=4, ICCS",0%
same,"Percentage of donors demonstrating IL-10 responses, DR8","[1]; DR8 donors N=4, ICCS",25%
same,"Percentage of donors demonstrating TNF-α responses, DR8","[1]; DR8 donors N=4, ICCS",0%
same,"Percentage of donors demonstrating IFN-γ responses, DR9","[1]; DR9 donors N=4, ICCS after 14-day co-culture",25%
same,"Percentage of donors demonstrating IL-2 responses, DR9","[1]; DR9 donors N=4, ICCS",0%
same,"Percentage of donors demonstrating IL-4 responses, DR9","[1]; DR9 donors N=4, ICCS",25%
same,"Percentage of donors demonstrating IL-10 responses, DR9","[1]; DR9 donors N=4, ICCS",25%
same,"Percentage of donors demonstrating TNF-α responses, DR9","[1]; DR9 donors N=4, ICCS",0%
same,"Percentage of donors demonstrating IFN-γ responses, DR11","[1]; DR11 donors N=4, ICCS after 14-day co-culture",0%
same,"Percentage of donors demonstrating IL-2 responses, DR11","[1]; DR11 donors N=4, ICCS",0%
same,"Percentage of donors demonstrating IL-4 responses, DR11","[1]; DR11 donors N=4, ICCS",0%
same,"Percentage of donors demonstrating IL-10 responses, DR11","[1]; DR11 donors N=4, ICCS",0%
same,"Percentage of donors demonstrating TNF-α responses, DR11","[1]; DR11 donors N=4, ICCS",0%
same,"Percentage of donors demonstrating IFN-γ responses, DR13","[1]; DR13 donors N=7, ICCS after 14-day co-culture",0%
same,"Percentage of donors demonstrating IL-2 responses, DR13","[1]; DR13 donors N=7, ICCS",0%
same,"Percentage of donors demonstrating IL-4 responses, DR13","[1]; DR13 donors N=7, ICCS",0%
same,"Percentage of donors demonstrating IL-10 responses, DR13","[1]; DR13 donors N=7, ICCS",29%
same,"Percentage of donors demonstrating TNF-α responses, DR13","[1]; DR13 donors N=7, ICCS",0%
same,"Percentage of donors demonstrating IFN-γ responses, DR15","[1]; DR15 donors N=7, ICCS after 14-day co-culture",29%
same,"Percentage of donors demonstrating IL-2 responses, DR15","[1]; DR15 donors N=7, ICCS",0%
same,"Percentage of donors demonstrating IL-4 responses, DR15","[1]; DR15 donors N=7, ICCS",0%
same,"Percentage of donors demonstrating IL-10 responses, DR15","[1]; DR15 donors N=7, ICCS",14%
same,"Percentage of donors demonstrating TNF-α responses, DR15","[1]; DR15 donors N=7, ICCS",0%
same,IC50,HLA-DRB1*0401,10800 nM
same,IC50,HLA-DRB1*1101,395 nM
same,IC50,HLA-DRB1*1301,37 nM
same,IC50,HLA-DRB1*0801,108 nM
